Measured values taken from ChEMBL document CHEMBL5370553, “Small-molecule LRRK2 inhibitors for PD therapy: Current achievements and future perspectives” (Eur J Med Chem, 2023).

Legend:
[1] = molecular target: T1, Leucine-rich repeat serine/threonine-protein kinase 2 (Homo sapiens, UniProt Q5S007); assay: Inhibition of GST20-tagged human LRRK2 using ERM as substrate measured after 90 mins in presence of ATP by lanthascreen TR-FRET assay
[2] = molecular target: T1, Leucine-rich repeat serine/threonine-protein kinase 2; assay: Inhibition of GST20-tagged human LRRK2 by cell based assay
[3] = Half life in mouse; assay type: ADME, organism-based; details: in vivo
[4] = molecular target: Protein cereblon/Leucine-rich repeat serine/threonine-protein kinase 2 (Mus musculus, UniProt Q5S006+Q8C7D2); assay: PROTAC activity at CRBN/LRRK2 in mouse RAW264.7 cells assessed as reduction of protein degradation measured after 24 hrs by Western blot analysis; assay type: cell-based
[5] = molecular target: T1, Leucine-rich repeat serine/threonine-protein kinase 2; assay: Inhibition of human LRRK2 measured after 60 mins by TR-FRET assay
[6] = molecular target: T2, Leucine-rich repeat serine/threonine-protein kinase 2 (Homo sapiens, UniProt Q5S007, G2019S); assay: Inhibition of human LRRK2 G2019S mutant measured after 60 mins by TR-FRET assay
T2 sequence (Q5S007 whole entry G2019S): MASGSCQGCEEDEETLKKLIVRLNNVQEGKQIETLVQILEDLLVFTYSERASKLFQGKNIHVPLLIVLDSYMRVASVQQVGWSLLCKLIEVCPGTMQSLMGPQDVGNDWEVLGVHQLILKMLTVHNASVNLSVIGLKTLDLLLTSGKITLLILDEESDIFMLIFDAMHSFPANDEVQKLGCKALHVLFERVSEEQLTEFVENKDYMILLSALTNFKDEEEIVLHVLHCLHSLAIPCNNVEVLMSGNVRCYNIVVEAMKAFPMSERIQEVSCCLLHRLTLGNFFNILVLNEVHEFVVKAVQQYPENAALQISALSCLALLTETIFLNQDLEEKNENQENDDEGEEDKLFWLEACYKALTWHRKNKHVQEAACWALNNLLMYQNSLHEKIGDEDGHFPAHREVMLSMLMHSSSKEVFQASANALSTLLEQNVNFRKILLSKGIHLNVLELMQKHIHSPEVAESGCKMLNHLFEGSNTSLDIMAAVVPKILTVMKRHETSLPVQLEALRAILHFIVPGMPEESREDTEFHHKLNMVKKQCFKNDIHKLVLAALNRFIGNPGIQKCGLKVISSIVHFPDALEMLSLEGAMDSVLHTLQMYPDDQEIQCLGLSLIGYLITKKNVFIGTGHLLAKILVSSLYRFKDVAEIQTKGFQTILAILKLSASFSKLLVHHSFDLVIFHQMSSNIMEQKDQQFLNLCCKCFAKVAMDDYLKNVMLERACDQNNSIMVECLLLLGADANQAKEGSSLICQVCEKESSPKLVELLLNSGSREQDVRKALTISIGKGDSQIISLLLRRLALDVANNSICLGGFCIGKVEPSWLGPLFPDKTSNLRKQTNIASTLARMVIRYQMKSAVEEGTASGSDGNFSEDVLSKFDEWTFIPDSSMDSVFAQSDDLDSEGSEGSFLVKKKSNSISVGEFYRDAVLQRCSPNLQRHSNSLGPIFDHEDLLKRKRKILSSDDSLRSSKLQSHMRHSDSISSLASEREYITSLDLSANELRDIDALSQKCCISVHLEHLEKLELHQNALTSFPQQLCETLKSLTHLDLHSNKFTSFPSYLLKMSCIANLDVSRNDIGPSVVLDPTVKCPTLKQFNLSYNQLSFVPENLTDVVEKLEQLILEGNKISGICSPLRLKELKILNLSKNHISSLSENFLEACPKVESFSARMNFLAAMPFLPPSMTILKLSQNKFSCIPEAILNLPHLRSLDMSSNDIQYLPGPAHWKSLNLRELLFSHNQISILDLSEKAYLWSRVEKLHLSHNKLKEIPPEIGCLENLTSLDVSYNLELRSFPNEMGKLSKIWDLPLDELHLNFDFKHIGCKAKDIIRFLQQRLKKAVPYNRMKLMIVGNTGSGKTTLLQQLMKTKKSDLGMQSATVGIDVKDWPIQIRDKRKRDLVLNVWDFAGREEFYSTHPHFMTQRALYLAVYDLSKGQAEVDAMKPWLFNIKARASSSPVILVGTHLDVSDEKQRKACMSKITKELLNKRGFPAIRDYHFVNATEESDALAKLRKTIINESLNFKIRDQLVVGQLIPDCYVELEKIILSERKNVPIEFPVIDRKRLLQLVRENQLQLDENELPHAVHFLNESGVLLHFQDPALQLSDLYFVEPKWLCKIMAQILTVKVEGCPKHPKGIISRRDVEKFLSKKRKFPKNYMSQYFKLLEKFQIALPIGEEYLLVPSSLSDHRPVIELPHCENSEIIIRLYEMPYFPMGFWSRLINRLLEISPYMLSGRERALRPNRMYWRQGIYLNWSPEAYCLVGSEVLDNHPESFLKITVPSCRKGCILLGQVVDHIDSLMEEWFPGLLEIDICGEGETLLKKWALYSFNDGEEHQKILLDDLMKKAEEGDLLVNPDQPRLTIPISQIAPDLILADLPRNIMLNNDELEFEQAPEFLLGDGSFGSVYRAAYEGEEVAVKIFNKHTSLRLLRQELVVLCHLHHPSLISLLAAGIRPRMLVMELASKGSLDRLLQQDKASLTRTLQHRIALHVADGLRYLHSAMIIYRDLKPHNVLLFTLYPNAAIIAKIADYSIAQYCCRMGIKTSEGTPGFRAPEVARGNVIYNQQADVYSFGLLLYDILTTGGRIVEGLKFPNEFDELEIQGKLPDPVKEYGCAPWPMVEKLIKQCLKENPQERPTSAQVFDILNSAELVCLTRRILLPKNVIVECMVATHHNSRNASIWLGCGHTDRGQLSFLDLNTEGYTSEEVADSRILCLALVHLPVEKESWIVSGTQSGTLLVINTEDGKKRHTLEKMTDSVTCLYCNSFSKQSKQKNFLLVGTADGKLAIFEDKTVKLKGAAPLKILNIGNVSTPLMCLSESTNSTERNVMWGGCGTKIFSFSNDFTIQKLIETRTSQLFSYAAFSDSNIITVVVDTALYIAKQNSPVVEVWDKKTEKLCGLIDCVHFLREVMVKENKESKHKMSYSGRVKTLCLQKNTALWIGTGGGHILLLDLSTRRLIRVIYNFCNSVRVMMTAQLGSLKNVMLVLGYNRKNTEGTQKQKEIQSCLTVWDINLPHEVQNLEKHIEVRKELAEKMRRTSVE

[7] = Oral bioavailability in CD-1 mouse at 5 mg/kg; assay type: ADME, organism-based; details: in vivo
[8] = Half life in CD-1 mouse at 1 mg/kg, iv; assay type: ADME, organism-based; details: in vivo
[9] = molecular target: T1, Leucine-rich repeat serine/threonine-protein kinase 2; assay: Inhibition of human LRRK2 using LRRKtide as substrate measured after 1 hrs by caliper mobility shift assay
[10] = molecular target: T2, Leucine-rich repeat serine/threonine-protein kinase 2; assay: Inhibition of human LRRK2 G2019S mutant using LRRKtide as substrate measured after 1 hrs by caliper mobility shift assay
[11] = molecular target: Dual specificity protein kinase CLK2 (Homo sapiens, UniProt P49760); assay: Inhibition of CLK2 (unknown origin) by fluorescence based assay
Sequence of Dual specificity protein kinase CLK2 (P49760 whole entry): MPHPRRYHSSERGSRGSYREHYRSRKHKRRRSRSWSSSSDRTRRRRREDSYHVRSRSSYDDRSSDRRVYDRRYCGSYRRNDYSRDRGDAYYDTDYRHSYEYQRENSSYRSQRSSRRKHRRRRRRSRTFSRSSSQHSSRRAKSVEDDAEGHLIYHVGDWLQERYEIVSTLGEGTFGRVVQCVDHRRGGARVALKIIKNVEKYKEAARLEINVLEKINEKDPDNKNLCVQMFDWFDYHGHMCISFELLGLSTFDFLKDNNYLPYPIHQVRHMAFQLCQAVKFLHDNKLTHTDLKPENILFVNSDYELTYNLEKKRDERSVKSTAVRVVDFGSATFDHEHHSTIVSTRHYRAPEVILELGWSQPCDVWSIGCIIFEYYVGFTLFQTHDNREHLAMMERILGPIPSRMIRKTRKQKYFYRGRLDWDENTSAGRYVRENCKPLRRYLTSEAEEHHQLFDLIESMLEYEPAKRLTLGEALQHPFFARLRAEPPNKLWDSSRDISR

[12] = Mean residence time in rat by LC-MS/MS analysis; assay type: ADME; details: in vivo
[13] = Mean residence time in Beagle dog by LC-MS/MS analysis; assay type: ADME, Canis lupus familiaris; details: in vivo
[14] = Oral bioavailability in rat by LC-MS/MS analysis; assay type: ADME, organism-based; details: in vivo
[15] = Oral bioavailability in Beagle dog by LC-MS/MS analysis; assay type: ADME, organism-based, Canis lupus familiaris; details: in vivo
[16] = molecular target: T3, von Hippel-Lindau disease tumor suppressor/Leucine-rich repeat serine/threonine-protein kinase 2 (Homo sapiens) (UniProt Q5S007+P40337); assay: PROTAC activity at VHL/LRRK2 in human PBMC cells assessed as induction of degradation by measuring half life measured after 24 hrs by Western blot analysis; assay type: cell-based
T3 sequence (P40337 whole entry, looked up): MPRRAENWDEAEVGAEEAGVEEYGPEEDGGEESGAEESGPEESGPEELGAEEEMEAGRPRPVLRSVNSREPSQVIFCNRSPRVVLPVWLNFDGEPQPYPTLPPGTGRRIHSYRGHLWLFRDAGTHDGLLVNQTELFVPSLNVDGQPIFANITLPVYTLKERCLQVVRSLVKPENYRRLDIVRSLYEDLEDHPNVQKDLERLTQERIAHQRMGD
T3 sequence (Q5S007 whole entry, looked up): as the sequence (Q5S007 whole entry G2019S) above, with S2019G counted along it

[17] = system: von Hippel-Lindau disease tumor suppressor/Leucine-rich repeat serine/threonine-protein kinase 2 (Homo sapiens), Q5S007+P40337 [G2019S]; assay: PROTAC activity at VHL/LRRK2 G2019S mutant in human PBMC cells assessed as induction of degradation by measuring half life measured after 24 hrs by Western blot analysis; assay type: cell-based
[18] = molecular target: T3, von Hippel-Lindau disease tumor suppressor/Leucine-rich repeat serine/threonine-protein kinase 2 (Homo sapiens); assay: PROTAC activity at VHL/LRRK2 in human PBMC cells assessed as reduction of protein degradation at 300 nM measured after 4 hrs by Western blot analysis relative to control; assay type: cell-based
[19] = system: von Hippel-Lindau disease tumor suppressor/Leucine-rich repeat serine/threonine-protein kinase 2 (Homo sapiens), Q5S007+P40337 [G2019S]; assay: PROTAC activity at VHL/LRRK2 G2019S mutant in human PBMC cells assessed as reduction of protein degradation at 300 nM measured after 4 hrs by Western blot analysis relative to control; assay type: cell-based
[20] = molecular target: T4, von Hippel-Lindau disease tumor suppressor/Leucine-rich repeat serine/threonine-protein kinase 2 (Homo sapiens, UniProt P40337+Q5S007); assay: PROTAC activity at VHL/LRRK2 in human PBMC cells assessed as reduction of protein degradation measured after 4 hrs by Western blot; assay type: cell-based
T4 sequence (Q5S007 whole entry): as the sequence (Q5S007 whole entry G2019S) above, with S2019G counted along it
T4 sequence (P40337 whole entry): as the sequence (P40337 whole entry, looked up) above

[21] = molecular target: T5, von Hippel-Lindau disease tumor suppressor/Leucine-rich repeat serine/threonine-protein kinase 2 (Homo sapiens, UniProt P40337+Q5S007, G2019S); assay: PROTAC activity at VHL/LRRK2 G2019S mutant in human PBMC cells assessed as reduction of protein degradation measured after 4 hrs by Western blot; assay type: cell-based
T5 sequence (P40337 whole entry, stated change not applied): as the sequence (P40337 whole entry, looked up) above
T5 sequence (Q5S007 whole entry G2019S, stated change not applied): as the sequence (Q5S007 whole entry G2019S) above

[22] = molecular target: T4, von Hippel-Lindau disease tumor suppressor/Leucine-rich repeat serine/threonine-protein kinase 2; assay: PROTAC activity at VHL/LRRK2 in human PBMC cells assessed as reduction of protein degradation measured after 24 hrs by Western blot; assay type: cell-based
[23] = molecular target: T5, von Hippel-Lindau disease tumor suppressor/Leucine-rich repeat serine/threonine-protein kinase 2; assay: PROTAC activity at VHL/LRRK2 G2019S mutant in human PBMC cells assessed as reduction of protein degradation measured after 24 hrs by Western blot; assay type: cell-based
[24] = Oral bioavailability in mouse at 30 mg/kg measured upto 8 hrs by LC-MS/MS analysis; assay type: ADME, organism-based; details: in vivo
[25] = molecular target: T2, Leucine-rich repeat serine/threonine-protein kinase 2; assay: Inhibition of LRRK2 G2019S mutant (unknown origin)
[26] = molecular target: T1, Leucine-rich repeat serine/threonine-protein kinase 2; assay: Inhibition of LRRK2 (unknown origin)
[27] = molecular target: Leucine-rich repeat serine/threonine-protein kinase 2 (Mus musculus, UniProt Q5S006); assay: Inhibition of mouse LRRK2
[28] = molecular target: T1, Leucine-rich repeat serine/threonine-protein kinase 2; assay: Inhibition of GST-tagged recombinant human LRRK2 expressed in Insect cell using ERM as substrate measured after 1 hrs
[29] = molecular target: T2, Leucine-rich repeat serine/threonine-protein kinase 2; assay: Inhibition of GST-tagged human LRRK2 G2019S mutant expressed in Insect cell using ERM as substrate measured after 1 hrs
[30] = molecular target: T1, Leucine-rich repeat serine/threonine-protein kinase 2; assay: Inhibition of recombinant N-terminal GST-tagged human LRRK2 expressed in Sf9 insect cells using H-RLGAWRFTTLRRARQGNTKQR-OH peptide as substrate
[31] = molecular target: T2, Leucine-rich repeat serine/threonine-protein kinase 2; assay: Inhibition of recombinant N-terminal GST-tagged human G2019S LRRK2 expressed in Sf9 insect cells using H-RLGAWRFTTLRRARQGNTKQR-OH peptide as substrate
[32] = Oral bioavailability in rat; assay type: ADME, organism-based; details: in vivo
[33] = Half life in rat; assay type: ADME; details: in vivo
[34] = molecular target: T3, von Hippel-Lindau disease tumor suppressor/Leucine-rich repeat serine/threonine-protein kinase 2 (Homo sapiens); assay: PROTAC activity at VHL/LRRK2 in human PBMC cells assessed as reduction of protein degradation measured after 24 hrs by Western blot analysis relative to control; assay type: cell-based
[35] = system: von Hippel-Lindau disease tumor suppressor/Leucine-rich repeat serine/threonine-protein kinase 2 (Homo sapiens), Q5S007+P40337 [G2019S]; assay: PROTAC activity at VHL/LRRK2 G2019S mutant in human PBMC cells assessed as reduction of protein degradation measured after 24 hrs by Western blot analysis relative to control; assay type: cell-based
[36] = molecular target: T1, Leucine-rich repeat serine/threonine-protein kinase 2; assay: Inhibition of human full length LRRK2 using RLGRDKYKTLRQIRQ peptide as substrate by mass spectrometry analysis

T1 sequence (Q5S007 whole entry): as the sequence (Q5S007 whole entry G2019S) above, with S2019G counted along it

`CC(C)(O)[C@@H]1CCN(c2cnc(C(F)(F)F)c(NC(=O)c3cccc(-c4cnn(CC(F)(F)F)c4)n3)c2)C1` showed an IC50 [1] of 10 nM and an IC50 [2] of 0.7 nM.
With `COc1cc(C(=O)N2CCC(N3CCN(C)CC3)CC2)ccc1Nc1ncc2c(n1)N(C)c1ccccc1C(=O)N2C` the half-life [3] was 4.5 h.
In the case of `CCNc1nc(Nc2cc(F)c(C(=O)NCCCCNc3cccc4c3C(=O)N(C3CCC(=O)NC3=O)C4=O)cc2OC)ncc1C(F)(F)F` (stereo not given), the IC50 [4] is reported as 14.7 nM.
Work on `COc1cc(N2CCOCC2)ccc1Nc1ncc(F)c(Nc2ccccc2NS(C)(=O)=O)n1` yielded an IC50 [5] of 4.76 nM, an IC50 [6] of 6.87 nM and a bioavailability [7] of 133%. It also gave a half-life [8] of 1 h.
With `CNc1nc(N/N=C/c2cccc3ccccc23)nc(Nc2cccc(C(F)(F)F)c2)n1` the IC50 [9] was 424 nM and the IC50 [10] was 378 nM.
Compound `Cn1cc(-c2cccc(C(=O)Nc3cc(N4CCC(C(C)(C)O)C4)ncc3C(F)(F)F)n2)cn1` (stereo not given) has an IC50 [1] of 1 nM, an IC50 [2] of 2.5 nM and an IC50 [11] of 63 nM. For the same compound, the MRT [12] was 5.2 h, the MRT [13] was 3.6 h and the bioavailability [14] was 16%. The bioavailability [15] was 43%.
Work on `CNc1nc(Nc2ccc(C(=O)N3CCN(C[C@H]4CC[C@@H](CSC(C)(C)[C@H](NC(=O)C5(F)CC5)C(=O)N5C[C@H](O)C[C@H]5C(=O)NCc5ccc(-c6scnc6C)cc5)CC4)CC3)cc2OC)ncc1Cl` yielded a T1/2 [16] of 2.7 h, a T1/2 [17] of 1.4 h and an Emax [18] of 59%. The Emax [19] was 90%, the EC50 [20] was 32 nM and the EC50 [21] was 7 nM.
For `COc1cc(N2CCOCC2)ccc1Nc1ncc(Cl)c(Nc2ccccc2NS(C)(=O)=O)n1`, the IC50 [5] was 1.28 nM and the IC50 [6] was 1.85 nM.
`CNc1nc(Nc2ccc(C(=O)N3CCN(C[C@H]4CC[C@H](CSC(C)(C)[C@H](NC(=O)C5(F)CC5)C(=O)N5C[C@H](O)C[C@H]5C(=O)NCc5ccc(-c6scnc6C)cc5)CC4)CC3)cc2OC)ncc1Cl` gave a T1/2 [16] of 1.2 h, a T1/2 [17] of 0.6 h and an Emax [18] of 82%. The Emax [19] was 81%, the IC50 [22] was 12.4 nM and the IC50 [23] was 24.3 nM. It also gave an EC50 [20] of 32 nM, an EC50 [21] of 14 nM and a bioavailability [24] of 15%.
`C=CC(=O)Nc1cccc(Oc2nc(Nc3ccc(N4CCN(C)CC4)c(F)c3)nc3[nH]ccc23)c1` [ABIVERTINIB] showed an IC50 [25] of 410 nM and an IC50 [26] of 177 nM.
`CCOc1cc(N2CCOCC2)ccc1Nc1ncc(F)c(Nc2ccccc2NS(C)(=O)=O)n1` showed an IC50 [27] of 190 nM.
With `CC(C)Nc1nc(Nc2ccc(C(=O)NCc3ccccc3)cc2)nc2ccsc12` the IC50 [25] was 14 nM and the IC50 [26] was 30 nM.
With `Cn1cc(-c2c[nH]c3ncnc(N4CCOCC4)c23)cc1C#N` the IC50 [28] was 13 nM and the IC50 [29] was 6.37 nM.
Work on `CCC(Sc1ccc2nnc(-c3cccs3)n2n1)C(=O)N1CCCCC1` (stereo not given) yielded an IC50 [30] of 146 nM and an IC50 [31] of 75 nM.
`CCNc1nc(Nc2cc(F)c(C(=O)N3CCOCC3)cc2OC)ncc1C(F)(F)F` showed an IC50 [25] of 1 nM, a bioavailability [32] of 40% and a half-life [33] of 3.1 h.
Work on `Cn1cc(-c2cccc(C(=O)Nc3cc(N4CC[C@@H](C(C)(C)O)C4)cnc3C(F)(F)F)n2)cn1` yielded an IC50 [1] of 17 nM and an IC50 [2] of 21 nM.
`CNc1nc(Nc2ccc(C(=O)N3CCN(CCOCCOCCSC(C)(C)[C@H](NC(=O)C4(F)CC4)C(=O)N4C[C@H](O)C[C@H]4C(=O)NCc4ccc(-c5scnc5C)cc4)CC3)cc2OC)ncc1Cl` showed an Emax [34] of 51%, an Emax [35] of 58% and a T1/2 [16] of 5.1 h. It also gave a T1/2 [17] of 1.4 h.
Work on `Cc1c2c(nn1C1CCOCC1)OCCCNc1nc(ncc1Cl)N2` yielded an IC50 [36] of at most 100 nM.
With `Cn1cc(-c2nc(C(=O)Nc3cnn(C4CCC4)c3)cs2)cn1` the IC50 [1] was 14 nM and the IC50 [2] was 271 nM.
